Assay results: patent US20240342111A1, “ISOMER-SPECIFIC NEUROPROTECTIVE EFFECT OF NATURAL RESERVATROL” (priority 2021, published 2024)

How the values were obtained:
[1] = test system: TyrRS; assay: Immunostaining of neuronal TyrRS under neurotoxic agents (NMDA, MPP+); type: cell-based, rat; conditions: neurotoxic agent alone (50 μM NMDA, 100 μM MPP+), 4 hours
[2] = test system: ataxia telangiectasia mutated (ATM) kinase; conditions: low dose 5 μM; cited from earlier work
[3] = biological target: T1, TyrRS (Homo sapiens, UniProt P54577); conditions: low dose ≤5 μM, HeLa cells; cited from earlier work
T1 construct: host or cells: HeLa cells
T1 sequence (P54577 whole entry): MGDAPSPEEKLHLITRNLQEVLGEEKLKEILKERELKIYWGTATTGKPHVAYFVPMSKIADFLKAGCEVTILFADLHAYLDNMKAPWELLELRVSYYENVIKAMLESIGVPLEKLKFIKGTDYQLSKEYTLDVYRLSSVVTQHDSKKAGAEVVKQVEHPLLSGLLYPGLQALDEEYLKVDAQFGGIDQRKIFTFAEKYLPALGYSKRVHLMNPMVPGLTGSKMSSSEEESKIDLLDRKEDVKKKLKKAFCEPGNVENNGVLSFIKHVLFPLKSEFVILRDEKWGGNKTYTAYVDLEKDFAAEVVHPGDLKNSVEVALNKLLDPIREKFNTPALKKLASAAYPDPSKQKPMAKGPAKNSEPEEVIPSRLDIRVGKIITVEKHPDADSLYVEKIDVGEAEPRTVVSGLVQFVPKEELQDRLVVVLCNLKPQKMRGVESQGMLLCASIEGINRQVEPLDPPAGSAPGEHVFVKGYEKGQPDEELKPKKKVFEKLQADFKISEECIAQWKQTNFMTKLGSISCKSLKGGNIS

[4] = test system: TyrRS; assay: Immunoblot for TyrRS after treatment with Aβ42; type: cell-based, rat; conditions: different doses of Aβ42, 24 hours
Protocol: (§1) Representative immunostaining images (scale bar, 20 μm) for neuronal TyrRS (spectral images) after treatment with neurotoxic agents result in TyrRS downregulation. […] The protein level of TyrRS was quantified by measuring the average intensity of fluorescence staining with regions defined by MAP2 (neurite marker) staining across n=3 experiments using n≥20 neurons for quantification per treatment condition. […] Rat cortical neurons (DIV 9) were treated with different doses of Aβ42 for 24 hours. All graphical representations depict mean±SEM from n=3 experiments with statistical significance calculated using paired Student's t-test.
(§2) Cultured neurons (DIV 9-10) were washed once with cold 1×PBS and lysed in cell lysis buffer (20 mM Tris-HCl (pH 7.5), 150 mM NaCl, 1 mM Na2EDTA, 1 mM EGTA, 1% Triton, 2.5 mM sodium pyrophosphate, 1 mM beta-glycerophosphate, 1 mM Na3VO4, 1 μg/ml leupeptin supplemented with protease inhibitor). The lysates were centrifuged at 10,000 RPM for 15 minutes at 4° C. to separate the chromatin-bound and soluble fractions. Lysates were quantified using Bio-Rad Protein Assay, and an equal amount of protein was loaded onto a 4 to 12% gradient gel (NuPAGE-Invitrogen). […] Quantification for the western blots was done using ImageJ (Version 1.53c).

[5] = test system: phenyl-tRNA synthetase beta (PheRSβ); assay: Immunoblot for PheRSβ after treatment with Aβ42; type: cell-based, rat; conditions: different doses of Aβ42, 24 hours
Protocol: as §1, §2

[6] = test system: pSer10-H3; assay: Immunostaining of pSer10-H3 (ADP-ribosylation dependent DNA repair marker); type: cell-based, rat; conditions: Aβ 50 nM, 24 hours
Source text: Ac-K56-H3 is a marker of genomic stability, see Driscoll, R., Hudson, A. & Jackson, S. P. Yeast Rtt109 promotes genome stability by acetylating histone H3 on lysine 56. Science 315, 649-652, doi:10.1126/science.1135862 (2007), and DNA damage, see Tjeertes, J. V., Miller, K. M. & Jackson, S. P. Screen for DNA-damage-responsive histone modifications identifies H3K9Ac and H3K56Ac in human cells. EMBO J 28, 1878-1889, doi:10.1038/emboj.2009.119 (2009), and inhibition of PARP1 causes the downregulation of RAD51, see Hegan, D. C. et al. Inhibition of poly(ADP-ribose) polymerase down-regulates BRCA1 and RAD51 in a pathway mediated by E2F4 and p130. Proc Natl Acad Sci U S A 107, 2201-2206, doi:10.1073/pnas.0904783107 (2010), and induces neurotoxicity, see Diaz-Hernandez, J. I., Moncada, S., Bolanos, J. P. & Almeida, A. Poly(ADP-ribose) polymerase-1 protects neurons against apoptosis induced by oxidative stress. Cell Death Differ 14, 1211-1221, doi:10.1038/sj.cdd.4402117 (2007) and Midorikawa, R., Takei, Y. & Hirokawa, N. KIF4 motor regulates activity-dependent neuronal survival by suppressing PARP-1 enzymatic activity. Cell 125, 371-383, doi:10.1016/j.cell.2006.02.039 (2006). […] The western blot images of the protein levels of HPF1 was quantified using ImageJ.
Coverslips were then mounted using DAPI (4′,6-diamidino-2-phenylindole)-supplemented mounting medium, Prolong Gold Antifade (Invitrogen) imaged with Leica DMI6000 epifluorescent microscope at 63×magnification.

[7] = biological target: T2, TyrRS (Rattus norvegicus, UniProt Q4KM49); assay: Immunostaining of neuronal TyrRS, RSV alone or in combination with Aβ; type: cell-based; conditions: Aβ 50 nM alone, 16 hours
T2 construct: Primary cortical neuron cultures were obtained from E18 Sprague Dawley rats' cortices; endogenous in cells; host or cells: rat primary cortical neurons (E18 Sprague Dawley)
T2 sequence (Q4KM49 1-528): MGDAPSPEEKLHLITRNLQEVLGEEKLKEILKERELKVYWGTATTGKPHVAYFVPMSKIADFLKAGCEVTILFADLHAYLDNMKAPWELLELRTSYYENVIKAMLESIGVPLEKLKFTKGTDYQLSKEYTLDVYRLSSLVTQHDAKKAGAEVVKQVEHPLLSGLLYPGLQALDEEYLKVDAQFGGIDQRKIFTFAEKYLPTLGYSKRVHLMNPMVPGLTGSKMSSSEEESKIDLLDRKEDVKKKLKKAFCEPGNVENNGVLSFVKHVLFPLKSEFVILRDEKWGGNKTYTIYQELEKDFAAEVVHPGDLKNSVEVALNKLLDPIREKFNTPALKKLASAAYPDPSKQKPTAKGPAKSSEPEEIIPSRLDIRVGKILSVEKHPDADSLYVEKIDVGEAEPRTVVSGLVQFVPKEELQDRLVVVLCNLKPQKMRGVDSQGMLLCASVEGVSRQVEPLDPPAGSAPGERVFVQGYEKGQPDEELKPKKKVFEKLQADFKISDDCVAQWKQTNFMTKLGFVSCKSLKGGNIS

C[n+]1ccc(-c2ccccc2)cc1 [MPP^+, 1-methyl-4-phenylpyridinium]
neuronal protein levels of TyrRS [1]: downregulate the neuronal protein levels of TyrRS

CN[C@H](CC(=O)O)C(=O)O [NMDA, N-Methyl-D-aspartate]
neuronal protein levels of TyrRS [1]: downregulate the neuronal protein levels of TyrRS

Oc1ccc(C=Cc2cc(O)cc(O)c2)cc1 [RSV, Resveratrol]
ATM kinase activation [2]: activate | protein levels of TyrRS [3]: upregulated the protein levels of TyrRS

human amyloid β protein fragment 1-42 [Aβ]
TyrRS protein level (immunoblot) [4]: downregulates TyrRS in a dose-dependent manner | PheRSβ protein level (immunoblot) [5]: did not downregulate | pSer10-H3 levels [6]: upregulation | TyrRS protein levels [7]: downregulation
